This note sets out measurements from article doi:10.1101/2022.10.18.512764v1 (bioRxiv, 2022).

Data set [1] has as its system HeLa. Briefly: TMR-TAT endocytic uptake measured by flow cytometry. Type of data set: cell-based.
Data set [2] concerns HeLa. Briefly: Quantification of TMR-TAT puncta by 100x fluorescence microscopy. The format is cell-based. As to conditions: TMR-TAT 5 µM, 1 h, 100x deconvoluted images, individual puncta.

For the sequence RKKQRRRG [TMR-TAT], the “Effect of cell aging on endocytosis” value in the data set on HeLa [1] (HeLa cultured 2, 10, 25 days, TMR-TAT 5 µM, 1 h, Fig S1) is on record as “no effect”. Further, the “Difference in uptake between growth in LG-DMEM and HG-DMEM, incubation in L-15” value in the data set with HeLa [1] (HeLa grown 24 h, TMR-TAT 5 µM 1 h in L-15, Fig 3B) is given as “not detectable”. Besides, in the data set with HeLa [1] (HeLa, TMR-TAT 5 µM in L-15, 5-60 min), the “Rate of TMR-TAT uptake at 25°C as percentage of that at 37°C” value is given as “approximately 50%”. The “Uptake less at 25°C than at 37°C, fold” value in the data set with HeLa [1] (HeLa, TMR-TAT 5 µM in L-15, 60 min incubation time point, Fig 4) amounted to 1.9 fold. For the same sequence, the “Effect of removing glucose from DMEM during incubation on uptake” value in the data set with HeLa [1] (HeLa, TMR-TAT 5 µM, 1 h, DMEM 0 vs 25 mM glucose, Fig 3C) is “reduction”. The “Effect of adding glucose to L15 on uptake” value with HeLa [1] (HeLa, TMR-TAT 5 µM, 1 h, L15 25 vs 0 mM glucose (5 mM galactose), Fig 3C) is reported as “increased”. In addition, the “Effect of 0 wash on uptake” value with HeLa [1] (HeLa, TMR-TAT 5 µM, 1 h, possibly because of unwashed BSA, Fig S4) is recorded as “uptake is inhibited”. In addition, in the data set on HeLa [1] (HeLa, TMR-TAT 5 µM, 1 h, discussion), the “Difference between MUP and HUP, fold MFI change” value is recorded as 2.3 fold. In the data set with HeLa [1] (HeLa, TMR-TAT 5 µM, 1 h, using a median of 0.8 × 10^3 for untreated cells), the “Fold increase in uptake, HUP compared to LUP” value was determined as 13 fold. The “Endocytosis higher in DMEM (serum free) than in L-15, factor” value with HeLa [1] (HeLa, TMR-TAT 5 µM, 1 h incubation, Fig 3A) worked out at 1.4 fold. In addition, in the data set with HeLa [2], the “Average pixel intensity of puncta, HUP versus MUP” value was “not statistically different”.
